Test system: A2058
Assay: Cytotoxicity against human A2058 cells assessed as survival at 250 uM relative to control
Assay type: functional
Settings: read-out: Survival

For CC1=C(NC(=O)CC(C)C)C(=O)N(CCCC(=O)O)C1=O, the viability at 250 µM was 100%.
